According to publication PMC11769294, “(E)-1-(3-(3-Hydroxy-4-Methoxyphenyl)-1-(3,4,5-Trimethoxyphenyl)allyl)-1H-1,2,4-Triazole and Related Compounds: Their Synthesis and Biological Evaluation as Novel Antimitotic Agents Targeting Breast Cancer” (Pharmaceuticals, 2025):

Experiments:
Type in all cases: cell-based, human
[1] = tested on: NCI 60 cancer cell line panel; test: NCI60 screen (SRB), all cell lines; details: over the 60-cell line panel; one dose 10 µM; 48 h
breast cancer panel = test: NCI60 screen (SRB), panel mean; details: BC panel; one dose 10 µM; 48 h
CCRF-CEM (Leukemia) = test: NCI60 screen (SRB); details: one dose 10 µM, 48 h
RPMI-8226 (Leukemia) = test: NCI60 screen (SRB); details: one dose 10 µM, 48 h
[2] = tested on: A549/ATCC (Non-Small Cell Lung Cancer); test: NCI60 screen (SRB); details: one dose 10 µM, 48 h
[3] = tested on: EKVX (Non-Small Cell Lung Cancer); test: NCI60 screen (SRB); details: one dose 10 µM, 48 h
[4] = tested on: HOP-62 (Non-Small Cell Lung Cancer); test: NCI60 screen (SRB); details: one dose 10 µM, 48 h
[5] = tested on: NCI-H23 (Non-Small Cell Lung Cancer); test: NCI60 screen (SRB); details: one dose 10 µM, 48 h
[6] = tested on: NCI-H460 (Non-Small Cell Lung Cancer); test: NCI60 screen (SRB); details: one dose 10 µM, 48 h
[7] = tested on: NCI-H522 (Non-Small Cell Lung Cancer); test: NCI60 screen (SRB); details: one dose 10 µM, 48 h
COLO 205 (Colon Cancer) = test: NCI60 screen (SRB); details: one dose 10 µM, 48 h
HCC-2998 (Colon Cancer) = test: NCI60 screen (SRB); details: one dose 10 µM, 48 h
HCT-15 (Colon Cancer) = test: NCI60 screen (SRB); details: one dose 10 µM, 48 h
SF-295 (CNS Cancer) = test: NCI60 screen (SRB); details: one dose 10 µM, 48 h
SF-539 (CNS Cancer) = test: NCI60 screen (SRB); details: one dose 10 µM, 48 h
SNB-19 (CNS Cancer) = test: NCI60 screen (SRB); details: one dose 10 µM, 48 h
SNB-75 (CNS Cancer) = test: NCI60 screen (SRB); details: one dose 10 µM, 48 h
U251 (CNS Cancer) = test: NCI60 screen (SRB); details: one dose 10 µM, 48 h
LOX IMVI (Melanoma) = test: NCI60 screen (SRB); details: one dose 10 µM, 48 h
M14 (Melanoma) = test: NCI60 screen (SRB); details: one dose 10 µM, 48 h
SK-MEL-2 (Melanoma) = test: NCI60 screen (SRB); details: one dose 10 µM, 48 h
SK-MEL-28 (Melanoma) = test: NCI60 screen (SRB); details: one dose 10 µM, 48 h
SK-MEL-5 (Melanoma) = test: NCI60 screen (SRB); details: one dose 10 µM, 48 h
UACC-257 (Melanoma) = test: NCI60 screen (SRB); details: one dose 10 µM, 48 h
UACC-62 (Melanoma) = test: NCI60 screen (SRB); details: one dose 10 µM, 48 h
IGROV1 (Ovarian Cancer) = test: NCI60 screen (SRB); details: one dose 10 µM, 48 h
OVCAR-3 (Ovarian Cancer) = test: NCI60 screen (SRB); details: one dose 10 µM, 48 h
OVCAR-4 (Ovarian Cancer) = test: NCI60 screen (SRB); details: one dose 10 µM, 48 h
OVCAR-5 (Ovarian Cancer) = test: NCI60 screen (SRB); details: one dose 10 µM, 48 h
OVCAR-8 (Ovarian Cancer) = test: NCI60 screen (SRB); details: one dose 10 µM, 48 h
[8] = tested on: NCI/ADR-RES (Ovarian Cancer); test: NCI60 screen (SRB); details: one dose 10 µM, 48 h
786-0 (Renal Cancer) = test: NCI60 screen (SRB); details: one dose 10 µM, 48 h
A498 (Renal Cancer) = test: NCI60 screen (SRB); details: one dose 10 µM, 48 h
RXF 393 (Renal Cancer) = test: NCI60 screen (SRB); details: one dose 10 µM, 48 h
SN12C (Renal Cancer) = test: NCI60 screen (SRB); details: one dose 10 µM, 48 h
UO-31 (Renal Cancer) = test: NCI60 screen (SRB); details: one dose 10 µM, 48 h
PC-3 (Prostate Cancer) = test: NCI60 screen (SRB); details: one dose 10 µM, 48 h
DU-145 (Prostate Cancer) = test: NCI60 screen (SRB); details: one dose 10 µM, 48 h
HS 578T (Breast Cancer) = test: NCI60 screen (SRB); details: HS 578T; one dose 10 µM; 48 h
[9] = tested on: MDA-MB-468 (Breast Cancer); test: NCI60 screen (SRB); details: one dose 10 µM, 48 h

SMILES | mean growth percent [1] | mean growth percentage (breast cancer panel) | growth percent (CCRF-CEM (Leukemia)) | growth percent (RPMI-8226 (Leukemia)) | growth percent [2] | growth percent [3] | growth percent [4] | growth percent [5] | growth percent [6] | growth percent [7] | growth percent (COLO 205 (Colon Cancer)) | growth percent (HCC-2998 (Colon Cancer)) | growth percent (HCT-15 (Colon Cancer)) | growth percent (SF-295 (CNS Cancer)) | growth percent (SF-539 (CNS Cancer)) | growth percent (SNB-19 (CNS Cancer)) | growth percent (SNB-75 (CNS Cancer)) | growth percent (U251 (CNS Cancer)) | growth percent (LOX IMVI (Melanoma)) | growth percent (M14 (Melanoma)) | also measured
COc1ccc(/C=C/C(c2cc(OC)c(OC)c(OC)c2)n2cncn2)cc1 (centres unmarked) [Compound 22a, (E)-1-(3-(4-Methoxyphenyl)-1-(3,4,5-trimethoxyphenyl)allyl)-1H-1,2,4-triazole] | 41.9% | 40.1% | 35.07% | 50.84% | 35.48% | 66.04% | 41.84% | 67.01% | 22.14% | 28.37% | 30.72% | 84.15% | 31.14% | 22.52% | 56.52% | 49.01% | 51.27% | 31.77% | 49.98% | 17.86% | growth percent (SK-MEL-2 (Melanoma)): 12.89%; growth percent (SK-MEL-28 (Melanoma)): 62.59%; growth percent (SK-MEL-5 (Melanoma)): 33.03%; growth percent (UACC-257 (Melanoma)): 46.44%; growth percent (UACC-62 (Melanoma)): 33.84%; growth percent (IGROV1 (Ovarian Cancer)): 64.61%; growth percent (OVCAR-3 (Ovarian Cancer)): 9.06%; growth percent (OVCAR-4 (Ovarian Cancer)): 96.82%; growth percent (OVCAR-5 (Ovarian Cancer)): 90.16%; growth percent (OVCAR-8 (Ovarian Cancer)): 52.16%; growth percent [8]: 36.28%; growth percent (786-0 (Renal Cancer)): 39.65%; growth percent (A498 (Renal Cancer)): 36.38%; growth percent (RXF 393 (Renal Cancer)): 46.51%; growth percent (SN12C (Renal Cancer)): 62.02%; growth percent (UO-31 (Renal Cancer)): 64.39%; growth percent (PC-3 (Prostate Cancer)): 31.20%; growth percent (DU-145 (Prostate Cancer)): 61.25%; growth percent (HS 578T (Breast Cancer)): 51.18%; growth percent [9]: 40.88%
COc1ccc(C2CC(n3ccnc3)c3cc(OC)c(OC)c(OC)c32)cc1O (centres unmarked) [Compound 27a, 5-(3-(1H-Imidazol-1-yl)-5,6,7-trimethoxy-2,3-dihydro-1H-inden-1-yl)-2-methoxyphenol] | 79.2% | 79.1% | 90.92% | 94.65% | 55.83% | 100.83% | 80.77% | 91.50% | 78.74% | 50.13% | 106.99% | 99.22% | 59.92% | 57.51% | 89.80% | 93.73% | 90.16% | 80.36% | 86.38% | 73.08% | growth percent (SK-MEL-2 (Melanoma)): 89.63%; growth percent (SK-MEL-28 (Melanoma)): 78.29%; growth percent (SK-MEL-5 (Melanoma)): 53.15%; growth percent (UACC-257 (Melanoma)): 58.46%; growth percent (UACC-62 (Melanoma)): 65.53%; growth percent (IGROV1 (Ovarian Cancer)): 82.43%; growth percent (OVCAR-3 (Ovarian Cancer)): 57.06%; growth percent (OVCAR-4 (Ovarian Cancer)): 100.34%; growth percent (OVCAR-5 (Ovarian Cancer)): 106.81%; growth percent (OVCAR-8 (Ovarian Cancer)): 89.25%; growth percent [8]: 93.87%; growth percent (786-0 (Renal Cancer)): 91.67%; growth percent (A498 (Renal Cancer)): 88.34%; growth percent (RXF 393 (Renal Cancer)): 70.77%; growth percent (SN12C (Renal Cancer)): 104.36%; growth percent (UO-31 (Renal Cancer)): 79.93%; growth percent (PC-3 (Prostate Cancer)): 60.69%; growth percent (DU-145 (Prostate Cancer)): 102.37%; growth percent (HS 578T (Breast Cancer)): 85.38%; growth percent [9]: 78.64%
